Source: paper PMC7394103 (Frontiers in Pharmacology, 2020)

Key:
[1] = test system: CIA in DBA1/J mice; assay: Collagen-induced arthritis (CIA), clinical score and histopathology; type: in vivo; details: 30 mg/kg i.p. daily; for CIA joint histopathology: day 8 to 42, vs saline; for CIA symptoms (clinical score): day 8 to 42, vs vehicle
Experimental: DBA1/J male mice (6–8 weeks) were obtained from The Jackson Laboratories (Bar Harbor, ME, USA). All animal experiments were performed in accordance with National Institutes of Health guidelines and approved by the Montana State University Institutional Animal Care and Use Committee.
To induce CIA in DBA1/J mice, immunization-grade bovine Type II collagen (CII) (Chondrex, Redmond, WA, USA) was solubilized in 0.05 M acetic acid (2 mg/ml), and 100 μg of CII emulsified in complete Freund’s adjuvant containing 4 mg/ml Mycobacterium tuberculosis (Chondrex) were injected subcutaneously (s.c.) in the tail ([Kochetkova et al., 2010]).
Mice were scored using a scale of 0 to 3 for each limb, with a maximal total score of 12, as previously described ([Schepetkin et al., 2015]): 0, no signs of inflammation; 1, mild redness or swelling of single digits; 2, significant swelling of ankle or wrist with erythema; and 3, severe swelling and erythema of multiple joints.
At 44 days after CII injection (CIA) or 14 days after anti-CII antibody injection (CAIA), the mice were euthanized, and their hind limbs were collected and fixed in 10% neutral buffered formalin. The limbs were decalcified in 5% formic acid for 3 to 6 days, and the joints were embedded in paraffin. Eight 8-μm sections were cut using a sagittal projection with 40 µm spacing of the cuts. Hematoxylin and eosin (H&E) and toluidine blue (TB) staining were performed for each sample.
H&E histopathological scores for the joints were determined by using a graded scale ([Schramm et al., 2004]), separately for cartilage destruction, pannus formation, and synovial cells changes. For cartilage destruction, the scale was: 0—normal, superficial zone is smooth; 1—superficial fibrillations, some loss of surface lamina; 2—vertical clefts/erosion to the calcified cartilage up to 25% of the surface; 3—vertical clefts/erosion to the calcified cartilage more than 25% of the surface, severe chondrocytes, and cartilage matrix loss with new bone tissue substitution, bone destruction. […] All sections of the hind paws and knee joints were examined, the highest score was recorded, with a total maximum score of 36 possible per mouse. The loss of the proteoglycans and cartilage degeneration was also scored in TB-stained sections on a graded scale of 0–3, as previously described ([Bernotiene et al., 2004]): 0—no cartilage loss; 1 – minimal chondrocytes and proteoglycan loss in superficial zone; 2—moderate chondrocytes and proteoglycan loss into middle zone but above tidemark; and 3—severe cartilage degeneration through tidemark, with the maximum score of 12 possible per mouse.

[2] = test system: MMP-3 secretion by HUVEC; assay: IL-1β-induced MMP-3 secretion by HUVEC (ELISA); type: cell-based; details: Homo sapiens, 30 min compound, then 5 ng/ml IL-1β, 24 h
Experimental: FLS, HUVEC, SW982, and THP-1 cells were plated in 96 well plates (10^4 to 10^5 cells/well) for 48 h before treatment. At 2 days post-confluency, the cells were serum-starved and washed twice (with the exception of THP-1 cell, which were not washed) with FBS-free medium prior to the addition of test compounds. The cells were incubated in the presence or absence of test compounds or DMSO (vehicle control) for 30 min at 37°C in a 5% CO2 atmosphere, IL-1β (5 ng/ml) was added, and the cells were incubated for an additional 24 h. Culture supernatants were collected and stored at –80°C. The levels of MMP-1 and MMP-3 were determined in culture supernatants using commercially available ELISA kits according to the manufacturer’s instructions (R&D System, Minneapolis, MN, USA). IL-6 levels were also determined in the supernatants using a human IL-6 ELISA kit (BD Biosciences, San Jose, CA, USA).

[3] = test system: LN cells from CIA mice; assay: CII-induced cytokine production by LN cells from treated CIA mice; type: in vivo; details: 30 mg/kg; for IL-10 production by LN cells / proinflammatory cytokines (IL-1β, IL-5, IL-6, IL-17A, TNF, GM-CSF, RANKL) by LN cells: cells cultured 72 h with CII, vs saline
Experimental: At the end of the study (day 44), we isolated the axillary, inguinal, and popliteal LN and purified mononuclear cells from the LN. These cells were cultured in 6-well plates (5 × 10^6 cells/ml) without or with 50 μg/ml CII for 3 days in RPMI-1640 medium supplemented with 10% of fetal bovine serum (FBS) (Invitrogen, Carlsbad, CA, USA), 2 mM l-glutamine, 100 U/ml penicillin, 100 μg/ml streptomycin, 1 mM sodium pyruvate, and 0.1 mM nonessential amino acids ([Kochetkova et al., 2008]). The levels of cytokines, including tumor necrosis factor (TNF), granulocyte-macrophage colony-stimulating factor (GM-CSF), IL-1β, IL-5, IL-6, IL-10, IL-17A, and receptor activator of nuclear factor-κB ligand (RANKL) were measured in LN culture supernatants using ELISA kits (BD Biosciences, San Jose, CA, USA) for mouse cytokines.

SMILES	CIA joint histopathology [1]	CIA symptoms (clinical score) [1]	IC50 [2]	IL-10 production by LN cells [3]	proinflammatory cytokines (IL-1β, IL-5, IL-6, IL-17A, TNF, GM-CSF, RANKL) by LN cells [3]	IL-17A, GM-CSF and RANKL production by LN cells ([3]; compared to mice treated with TRYP)
O=c1c2ccccc2nc2n1-c1ccccc1/C2=N/O [TRYP-Ox, tryptanthrin-6-oxime]	little cartilage erosion, synovial hyperplasia, or cellular infiltration	significant reductions in CIA symptoms	15.9 ± 5.8 µM	higher	significantly reduced	significantly lower
O=C1c2ccccc2-n2c1nc1ccccc1c2=O [TRYP, indolo[2,1-b]quinazolin-6,12-dione]	little cartilage erosion, synovial hyperplasia, or cellular infiltration	significant reductions in CIA symptoms	12.8 ± 4.4 µM	higher	significantly reduced	–
